Measurements published in ChEMBL document CHEMBL5338783, “Discovery of an Anti-TNF-α 9-mer Peptide from a T7 Phage Display Library for the Treatment of Inflammatory Bowel Disease” (J Med Chem, 2023).
Active and inactive are the calls of the source. No cut-off for these calls is given here. Peptide text beside a SMILES is read from it.

These molecules were tested against T1, Tumor necrosis factor (Homo sapiens, UniProt P01375) (assay: Binding affinity to recombinant TNF-alpha (unknown origin) assessed as dissociation constant incubated for 10 mins by MST assay). Conditions: not given.
T1 sequence (P01375 whole entry): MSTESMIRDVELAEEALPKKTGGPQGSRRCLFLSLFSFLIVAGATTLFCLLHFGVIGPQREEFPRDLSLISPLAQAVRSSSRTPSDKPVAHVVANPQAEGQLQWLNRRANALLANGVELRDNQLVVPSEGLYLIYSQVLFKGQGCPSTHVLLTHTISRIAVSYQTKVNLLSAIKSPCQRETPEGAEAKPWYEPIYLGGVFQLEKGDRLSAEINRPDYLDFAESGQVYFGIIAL

Compound	Kd [µM]
C[C@H](N)C(=O)N[C@@H](CS)C(=O)N[C@@H](C)C(=O)N[C@@H](C)C(=O)N[C@@H](Cc1c[nH]c2ccccc12)C(=O)N[C@@H](C)C(=O)N1CCC[C@H]1C(=O)N[C@H](C(=O)N[C@@H](CCCNC(=N)N)C(=O)O)[C@@H](C)O (H-ACAAWAPTR-OH)	230
C[C@H](N)C(=O)N[C@@H](CS)C(=O)N[C@@H](Cc1c[nH]cn1)C(=O)N[C@@H](C)C(=O)N[C@@H](C)C(=O)N[C@@H](C)C(=O)N1CCC[C@H]1C(=O)N[C@H](C(=O)N[C@@H](CCCNC(=N)N)C(=O)O)[C@@H](C)O (H-ACHAAAPTR-OH)	563
C[C@H](N)C(=O)N[C@@H](CS)C(=O)N[C@@H](Cc1c[nH]cn1)C(=O)N[C@@H](C)C(=O)N[C@@H](Cc1c[nH]c2ccccc12)C(=O)N[C@@H](C)C(=O)N[C@@H](C)C(=O)N[C@H](C(=O)N[C@@H](CCCNC(=N)N)C(=O)O)[C@@H](C)O (H-ACHAWAATR-OH)	9.06
C[C@H](N)C(=O)N[C@@H](CS)C(=O)N[C@@H](Cc1c[nH]cn1)C(=O)N[C@@H](C)C(=O)N[C@@H](Cc1c[nH]c2ccccc12)C(=O)N[C@@H](C)C(=O)N1CCC[C@H]1C(=O)N[C@@H](C)C(=O)N[C@@H](CCCNC(=N)N)C(=O)O (H-ACHAWAPAR-OH)	18

What follows are molecules tested against T1, Tumor necrosis factor (assay: Binding affinity to recombinant TNF-alpha (unknown origin) at 488.3 to 500 uM incubated for 10 mins by MST assay). Conditions: dose 488.3-500 µM.

Compound	Activity
CC[C@H](C)[C@H](NC(=O)[C@H](CCCCN)NC(=O)[C@H](CCCCN)NC(=O)[C@H](C)N)C(=O)N[C@H](C(=O)N[C@@H](CC(C)C)C(=O)N[C@@H](CCCNC(=N)N)C(=O)N[C@@H](CC(C)C)C(=O)N[C@@H](CO)C(=O)O)[C@@H](C)CC (H-AKKIILRLS-OH)	inactive
CC[C@H](C)[C@H](NC(=O)CNC(=O)[C@H](CC(C)C)NC(=O)[C@H](CC(C)C)NC(=O)[C@H](CO)NC(=O)[C@H](CC(C)C)NC(=O)[C@@H](NC(=O)[C@H](CCC(N)=O)NC(=O)[C@@H](N)CC(N)=O)[C@@H](C)CC)C(=O)O (H-NQILSLLGI-OH)	inactive
